Measured values taken from the supplement of paper PMC10307832.

Legend:
Test in all cases: relative viability (nuclei count vs DMSO), 5 days (fraction); higher = more cells survive
NCI-H838 = tested on: NCI-H838
Summary of the method: (§1)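 A single step with final 0.05% Triton X-100, 1% formaldehyde and 1 ug/ml Hoechst fixed the cells and stained nuclei 5 days after treatment. Lung cancer cell lines in 1536-well plates had been treated by pin tool the day after seeding with one drug alone or a fixed anchor-drug dose plus five library-drug doses (not always all listed) in √10 steps, and nuclei were counted on 4× images. Relative viability is the ratio of nuclei in treated wells to nuclei in vehicle wells, taken as the median of duplicate plates.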

NCI-H2405 = tested on: NCI-H2405
Summary of the method: as §1

UMC-11 = tested on: UMC-11
Summary of the method: as §1

NCI-H1975 = tested on: NCI-H1975
Summary of the method: as §1

LXF-289 = tested on: LXF-289
Summary of the method: as §1

NCI-H1437 = tested on: NCI-H1437
Summary of the method: as §1

NCI-H2085 = tested on: NCI-H2085
Summary of the method: as §1

NCI-H23 = tested on: NCI-H23
Summary of the method: as §1

NCI-H2023 = tested on: NCI-H2023
Summary of the method: as §1

NCI-H441 = tested on: NCI-H441
Summary of the method: as §1

HOP-62 = tested on: HOP-62
Summary of the method: as §1

EMC-BAC-2 = tested on: EMC-BAC-2
Summary of the method: as §1

CAL-12T = tested on: CAL-12T
Summary of the method: as §1

NCI-H2347 = tested on: NCI-H2347
Summary of the method: as §1

SW 900 = tested on: SW 900
Summary of the method: as §1

H3255 = tested on: H3255
Summary of the method: as §1

NCI-H1755 = tested on: NCI-H1755
Summary of the method: as §1

NCI-H460 = tested on: NCI-H460
Summary of the method: as §1

NCI-H1651 = tested on: NCI-H1651
Summary of the method: as §1

ChaGo-K-1 = tested on: ChaGo-K-1
Summary of the method: as §1

201T = tested on: 201T
Summary of the method: as §1

NCI-H2342 = tested on: NCI-H2342
Summary of the method: as §1

NCI-H1734 = tested on: NCI-H1734
Summary of the method: as §1

With `C=C1C(=O)O[C@@H](CCCCCCCC)[C@@H]1C(=O)O` [C-75] + CC(=O)c1c(C)c2cnc(Nc3ccc(N4CCNCC4)cn3)nc2n(C2CCCC2)c1=O [Palbociclib] (partner 0.5 µM) the relative viability (NCI-H838; first compound 0.08 µM) was 0.227, the relative viability (NCI-H838; first compound 0.253 µM) was 0.206 and the relative viability (NCI-H838; first compound 0.8 µM) was 0.194. It also gave a relative viability (NCI-H838; first compound 2.53 µM) of 0.207, a relative viability (NCI-H838; first compound 8 µM) of 0.206 and a relative viability (NCI-H2405; first compound 0.08 µM) of 0.523. It also gave a relative viability (NCI-H2405; first compound 0.253 µM) of 0.384, a relative viability (NCI-H2405; first compound 0.8 µM) of 0.557 and a relative viability (NCI-H2405; first compound 2.53 µM) of 0.423. The relative viability (NCI-H2405; first compound 8 µM) was 0.515, the relative viability (UMC-11; first compound 0.08 µM) was 0.308 and the relative viability (UMC-11; first compound 0.253 µM) was 0.315. The relative viability (UMC-11; first compound 0.8 µM) was 0.321, the relative viability (UMC-11; first compound 2.53 µM) was 0.351 and the relative viability (UMC-11; first compound 8 µM) was 0.268. It also gave a relative viability (NCI-H1975; first compound 0.08 µM) of 0.67, a relative viability (NCI-H1975; first compound 0.253 µM) of 0.433 and a relative viability (NCI-H1975; first compound 0.8 µM) of 0.525. It also gave a relative viability (NCI-H1975; first compound 2.53 µM) of 0.484, a relative viability (NCI-H1975; first compound 8 µM) of 0.581 and a relative viability (LXF-289; first compound 0.08 µM) of 0.567. For the same compound, the relative viability (LXF-289; first compound 0.253 µM) was 0.553, the relative viability (LXF-289; first compound 0.8 µM) was 0.597 and the relative viability (LXF-289; first compound 2.53 µM) was 0.604. The relative viability (LXF-289; first compound 8 µM) was 0.621, the relative viability (NCI-H1437; first compound 0.08 µM) was 0.301 and the relative viability (NCI-H1437; first compound 0.253 µM) was 0.381. For the same compound, the relative viability (NCI-H1437; first compound 0.8 µM) was 0.299, the relative viability (NCI-H1437; first compound 8 µM) was 0.312 and the relative viability (NCI-H2085; first compound 0.08 µM) was 0.491. For the same compound, the relative viability (NCI-H2085; first compound 0.253 µM) was 0.403, the relative viability (NCI-H2085; first compound 0.8 µM) was 0.443 and the relative viability (NCI-H2085; first compound 2.53 µM) was 0.436. The relative viability (NCI-H2085; first compound 8 µM) was 0.468, the relative viability (NCI-H23; first compound 0.08 µM) was 0.499 and the relative viability (NCI-H23; first compound 0.253 µM) was 0.582. It also gave a relative viability (NCI-H23; first compound 0.8 µM) of 0.511, a relative viability (NCI-H23; first compound 2.53 µM) of 0.467 and a relative viability (NCI-H23; first compound 8 µM) of 0.42. It also gave a relative viability (NCI-H2023; first compound 0.08 µM) of 0.395, a relative viability (NCI-H2023; first compound 0.253 µM) of 0.449 and a relative viability (NCI-H2023; first compound 0.8 µM) of 0.358. It also gave a relative viability (NCI-H2023; first compound 2.53 µM) of 0.244, a relative viability (NCI-H2023; first compound 8 µM) of 0.276 and a relative viability (NCI-H441; first compound 0.08 µM) of 0.255. For the same compound, the relative viability (NCI-H441; first compound 0.253 µM) was 0.255, the relative viability (NCI-H441; first compound 0.8 µM) was 0.205 and the relative viability (NCI-H441; first compound 8 µM) was 0.184. The relative viability (HOP-62; first compound 0.08 µM) was 0.46, the relative viability (HOP-62; first compound 0.253 µM) was 0.431 and the relative viability (HOP-62; first compound 0.8 µM) was 0.484. It also gave a relative viability (HOP-62; first compound 2.53 µM) of 0.361, a relative viability (HOP-62; first compound 8 µM) of 0.413 and a relative viability (EMC-BAC-2; first compound 0.08 µM) of 0.522. For the same compound, the relative viability (EMC-BAC-2; first compound 0.253 µM) was 0.505, the relative viability (EMC-BAC-2; first compound 0.8 µM) was 0.515 and the relative viability (EMC-BAC-2; first compound 2.53 µM) was 0.438. The relative viability (EMC-BAC-2; first compound 8 µM) was 0.521, the relative viability (CAL-12T; first compound 0.08 µM) was 0.531 and the relative viability (CAL-12T; first compound 0.253 µM) was 0.533. For the same compound, the relative viability (CAL-12T; first compound 0.8 µM) was 0.452, the relative viability (CAL-12T; first compound 2.53 µM) was 0.458 and the relative viability (CAL-12T; first compound 8 µM) was 0.449. It also gave a relative viability (NCI-H2347; first compound 0.08 µM) of 0.468, a relative viability (NCI-H2347; first compound 0.253 µM) of 0.44 and a relative viability (NCI-H2347; first compound 0.8 µM) of 0.35. The relative viability (NCI-H2347; first compound 2.53 µM) was 0.389, the relative viability (NCI-H2347; first compound 8 µM) was 0.413 and the relative viability (SW 900; first compound 0.08 µM) was 0.49. It also gave a relative viability (SW 900; first compound 0.253 µM) of 0.647, a relative viability (SW 900; first compound 0.8 µM) of 0.601 and a relative viability (SW 900; first compound 2.53 µM) of 0.594. The relative viability (SW 900; first compound 8 µM) was 0.607, the relative viability (H3255; first compound 0.08 µM) was 0.319 and the relative viability (H3255; first compound 0.253 µM) was 0.28. The relative viability (H3255; first compound 0.8 µM) was 0.323, the relative viability (H3255; first compound 2.53 µM) was 0.281 and the relative viability (H3255; first compound 8 µM) was 0.329. It also gave a relative viability (NCI-H1755; first compound 0.08 µM) of 0.417, a relative viability (NCI-H1755; first compound 0.253 µM) of 0.428 and a relative viability (NCI-H1755; first compound 0.8 µM) of 0.42. The relative viability (NCI-H1755; first compound 2.53 µM) was 0.378, the relative viability (NCI-H1755; first compound 8 µM) was 0.408 and the relative viability (NCI-H460; first compound 0.08 µM) was 0.0813. The relative viability (NCI-H460; first compound 0.253 µM) was 0.104, the relative viability (NCI-H460; first compound 0.8 µM) was 0.126 and the relative viability (NCI-H460; first compound 2.53 µM) was 0.132. The relative viability (NCI-H460; first compound 8 µM) was 0.155, the relative viability (NCI-H1651; first compound 0.08 µM) was 0.509 and the relative viability (NCI-H1651; first compound 0.253 µM) was 0.521. It also gave a relative viability (NCI-H1651; first compound 0.8 µM) of 0.521, a relative viability (NCI-H1651; first compound 2.53 µM) of 0.476 and a relative viability (NCI-H1651; first compound 8 µM) of 0.55. The relative viability (ChaGo-K-1; first compound 0.08 µM) was 0.87, the relative viability (ChaGo-K-1; first compound 0.253 µM) was 0.894 and the relative viability (ChaGo-K-1; first compound 0.8 µM) was 0.888. It also gave a relative viability (ChaGo-K-1; first compound 2.53 µM) of 0.519, a relative viability (ChaGo-K-1; first compound 8 µM) of 0.915 and a relative viability (201T; first compound 0.08 µM) of 0.377. The relative viability (201T; first compound 0.253 µM) was 0.374, the relative viability (201T; first compound 0.8 µM) was 0.336 and the relative viability (201T; first compound 2.53 µM) was 0.3. It also gave a relative viability (201T; first compound 8 µM) of 0.347, a relative viability (NCI-H2342; first compound 0.08 µM) of 0.546 and a relative viability (NCI-H2342; first compound 0.253 µM) of 0.488. It also gave a relative viability (NCI-H2342; first compound 0.8 µM) of 0.551, a relative viability (NCI-H2342; first compound 2.53 µM) of 0.541 and a relative viability (NCI-H2342; first compound 8 µM) of 0.571. For the same compound, the relative viability (NCI-H1734; first compound 0.08 µM) was 0.34, the relative viability (NCI-H1734; first compound 0.253 µM) was 0.315 and the relative viability (NCI-H1734; first compound 0.8 µM) was 0.36. It also gave a relative viability (NCI-H1734; first compound 2.53 µM) of 0.254 and a relative viability (NCI-H1734; first compound 8 µM) of 0.345.
